The target of one data set is P110 δ/Pi3K δ (Homo sapiens, UniProt O00329). The data set can be described thus: Fluorescent (HTRF) determination of PI3K enzyme activity, δ isoform. It counts as biochemical. Also on record: inhibition: dose or concentration left out as unconfirmed. Particulars: for IC50: read-out: P110 δ/Pi3K δ IC 50 nM. Summed up: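 HTRF kit detecting PIP3 formed from PIP2 by human PI3Kδ, at room temperature. Reaction started with 400 μM ATP (addition concentration) for 30 min, then stopped, and detection mix incubated 6–18 h in the dark. Percent inhibition taken against blank and enzyme controls, and IC50 fitted.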
P110 δ/Pi3K δ, sequence (O00329 whole entry, canonical isoform): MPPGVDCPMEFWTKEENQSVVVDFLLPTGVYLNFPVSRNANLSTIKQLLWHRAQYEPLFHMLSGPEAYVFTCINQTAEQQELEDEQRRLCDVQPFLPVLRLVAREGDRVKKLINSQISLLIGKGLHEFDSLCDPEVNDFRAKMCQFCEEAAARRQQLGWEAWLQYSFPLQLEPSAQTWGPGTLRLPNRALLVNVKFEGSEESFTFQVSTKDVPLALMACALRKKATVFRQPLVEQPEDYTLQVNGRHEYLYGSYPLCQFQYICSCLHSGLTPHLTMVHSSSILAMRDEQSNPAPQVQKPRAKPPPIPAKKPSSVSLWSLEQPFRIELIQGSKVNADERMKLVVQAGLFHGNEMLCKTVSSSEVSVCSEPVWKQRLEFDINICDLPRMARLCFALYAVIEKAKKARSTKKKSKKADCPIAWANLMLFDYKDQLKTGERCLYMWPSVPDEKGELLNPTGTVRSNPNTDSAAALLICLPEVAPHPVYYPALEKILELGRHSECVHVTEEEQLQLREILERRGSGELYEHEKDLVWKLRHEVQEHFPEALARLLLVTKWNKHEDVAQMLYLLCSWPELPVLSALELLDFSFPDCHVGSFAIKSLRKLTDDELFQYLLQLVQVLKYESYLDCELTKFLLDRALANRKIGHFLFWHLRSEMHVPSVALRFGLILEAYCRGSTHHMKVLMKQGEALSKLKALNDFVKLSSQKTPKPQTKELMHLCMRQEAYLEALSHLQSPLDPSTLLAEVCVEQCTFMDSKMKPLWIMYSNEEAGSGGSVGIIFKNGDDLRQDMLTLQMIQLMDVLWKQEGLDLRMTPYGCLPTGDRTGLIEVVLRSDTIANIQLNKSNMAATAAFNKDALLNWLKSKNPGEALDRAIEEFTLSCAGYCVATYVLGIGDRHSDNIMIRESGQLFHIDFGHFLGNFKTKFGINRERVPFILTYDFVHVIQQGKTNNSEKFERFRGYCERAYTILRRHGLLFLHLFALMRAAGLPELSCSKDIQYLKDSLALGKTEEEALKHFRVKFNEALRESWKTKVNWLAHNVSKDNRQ
P110 δ/Pi3K δ, sequence (P27986 whole entry partner, canonical isoform): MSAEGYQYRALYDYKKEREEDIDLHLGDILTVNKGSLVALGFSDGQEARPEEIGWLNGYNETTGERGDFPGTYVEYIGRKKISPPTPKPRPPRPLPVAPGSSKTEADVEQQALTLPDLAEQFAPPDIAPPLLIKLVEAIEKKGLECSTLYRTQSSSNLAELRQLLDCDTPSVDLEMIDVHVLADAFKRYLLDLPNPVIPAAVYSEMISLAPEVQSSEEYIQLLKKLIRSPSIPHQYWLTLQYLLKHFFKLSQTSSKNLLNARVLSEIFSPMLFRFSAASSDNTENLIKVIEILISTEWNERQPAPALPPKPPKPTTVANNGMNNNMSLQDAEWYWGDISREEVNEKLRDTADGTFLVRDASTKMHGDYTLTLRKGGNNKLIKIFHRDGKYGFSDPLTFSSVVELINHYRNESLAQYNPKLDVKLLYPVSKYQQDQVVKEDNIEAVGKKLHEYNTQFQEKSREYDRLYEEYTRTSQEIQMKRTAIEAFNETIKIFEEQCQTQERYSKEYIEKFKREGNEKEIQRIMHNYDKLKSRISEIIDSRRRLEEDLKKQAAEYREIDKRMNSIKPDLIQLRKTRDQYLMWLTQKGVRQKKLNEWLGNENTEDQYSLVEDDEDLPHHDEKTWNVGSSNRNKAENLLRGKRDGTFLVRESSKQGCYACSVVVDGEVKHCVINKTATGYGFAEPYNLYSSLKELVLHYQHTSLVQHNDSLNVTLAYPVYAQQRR
Background: Time-resolved FRET reads energy transfer from a long-lived donor to a nearby acceptor.

The results in this text go back to US9421209B2, “Kinase modulators” (Rhizen Pharmaceuticals SA, priority 2009, dated 2016).

What is called inhibition is the drop in the measured response relative to a control, in per cent. Usually melting point stands for the temperature, or range, at which the solid turns liquid. `CC(c1oc2ccccc2c(=O)c1-c1ccc(F)cc1)n1cnc2c(N)ncnc21` (centres unmarked) [Example 39, 2-(1-(6-Amino-9H-purin-9-yl)ethyl)-3-(4-fluorophenyl)-4H-chromen-4-one]: the melting point fell in the range of 210 to 212 °C. Further, the inhibition at 1 µM against P110 δ/Pi3K δ was under 50%.
The compound `C[C@@H](Nc1ncnc2[nH]cnc12)c1oc2ccccc2c(=O)c1-c1cccc(F)c1` [Example 56, (R)-2-(1-(9H-purin-6-ylamino)ethyl)-3-(3-fluorophenyl)-4H-chromen-4-one] had a melting point of 274 to 276 °C. For the same compound, at P110 δ/Pi3K δ, the inhibition at 1 µM was under 50%.
`CC(c1oc2ccc(Br)cc2c(=O)c1-c1ccccc1F)n1cnc2c(N)ncnc21` (centres unmarked) [Example 28, 2-(1-(6-Amino-9H-purin-9-yl)ethyl)-6-bromo-3-(2-fluorophenyl)-4H-chromen-4-one] had a melting point of 256 to 258 °C. On P110 δ/Pi3K δ, this compound displayed an inhibition at 1 µM of under 50%.
For the compound `C[C@H](Nc1ncnc2[nH]cnc12)c1oc2ccc(Br)cc2c(=O)c1-c1ccccc1` [Example 24, (S)-2-(1-(9H-purin-6-ylamino)ethyl)-6-bromo-3-phenyl-4H-chromen-4-one], the melting point is 151 to 154 °C. The same compound showed an inhibition at 1 µM against P110 δ/Pi3K δ of under 50%.
The compound `COc1cccc(-c2nn(C(C)c3oc4ccccc4c(=O)c3-c3ccccc3)c3ncnc(N)c23)c1` (centres unmarked) [Example 41, 2-(1-(4-Amino-3-(3-methoxyphenyl)-1H-pyrazolo[3,4-d]pyrimidin-1-yl)ethyl)-3-phenyl-4H-chromen-4-one] had a melting point of 176 to 178 °C. The compound also showed an inhibition at 1 µM at P110 δ/Pi3K δ of 50 to 100%.
In turn, `Cl.O=c1c(-c2ccccc2)c(CN2CCOCC2)oc2ccccc12` [Example 4a, 2-(Morpholinomethyl)-3-phenyl-4H-chromen-4-one hydrochloride] registered a melting point of 208 to 209 °C. The compound also registered an inhibition at 1 µM on P110 δ/Pi3K δ of under 50%.
As for `CC(c1oc2ccccc2c(=O)c1-c1cccc(F)c1)n1nc(-c2ccc(N)cc2)c2c(N)ncnc21` (centres unmarked) [Example 107a, 2-(1-(4-amino-3-(4-aminophenyl)-1H-pyrazolo[3,4-d]pyrimidin-1-yl)ethyl)-3-(3-fluorophenyl)-4H-chromen-4-one], the melting point was 91 to 94 °C. Further, on P110 δ/Pi3K δ, the inhibition was under 50%.
As to `CCC(c1oc2ccccc2c(=O)c1-c1ccccc1)n1cnc2c(N)ncnc21` (centres unmarked) [Example 31, 2-(1-(6-Amino-9H-purin-9-yl)propyl)-3-phenyl-4H-chromen-4-one], the melting point was in the range of 223 to 225 °C. At P110 δ/Pi3K δ, the inhibition at 1 µM lay within 50 to 100% and the IC50 was 250 to 500 nM.
Regarding `CC(c1oc2ccccc2c(=O)c1-c1cccc(F)c1)n1nc(-c2cccc(O)c2)c2c(N)ncnc21` (centres unmarked) [Example 51a, 2-(1-(4-amino-3-(3-hydroxyphenyl)-1H-pyrazolo[3,4-d]pyrimidin-1-yl)ethyl)-3-(3-fluorophenyl)-4H-chromen-4-one], the melting point was 282 to 285 °C. Further, on P110 δ/Pi3K δ, the inhibition at 1 µM lay within 50 to 100% and the IC50 is under 250 nM.
Turning to `Nc1ncnc2c1c(-c1cccc(CO)c1)nn2Cc1oc2ccccc2c(=O)c1-c1ccccc1` [Example 61, 2-((4-amino-3-(3-(hydroxymethyl)phenyl)-1H-pyrazolo[3,4-d]pyrimidin-1-yl)methyl)-3-phenyl-4H-chromen-4-one], the melting point was in the range of 219 to 223 °C. On P110 δ/Pi3K δ, this compound gave an inhibition at 1 µM of under 50%.
`Cc1ccccc1-c1c(C(C)n2cnc3c(N)ncnc32)oc2ccccc2c1=O` (centres unmarked) [Example 44, 2-(1-(6-Amino-9H-purin-9-yl)ethyl)-3-o-tolyl-4H-chromen-4-one] showed a melting point of 202 to 205 °C. The compound also yielded an inhibition at 1 µM at P110 δ/Pi3K δ of 50 to 100%.
For `Nc1ncnc2c1c(-c1cn[nH]c1)nn2Cc1oc2ccccc2c(=O)c1-c1ccccc1` [Example 60, 2-((4-amino-3-(1H-pyrazol-4-yl)-1H-pyrazolo[3,4-d]pyrimidin-1-yl)methyl)-3-phenyl-4H-chromen-4-one], the melting point lay within 235 to 237 °C. Also, at P110 δ/Pi3K δ, the inhibition at 1 µM was in the range of 50 to 100% and the IC50 is under 250 nM.
As to `CC(c1oc2ccccc2c(=O)c1-c1cccc(F)c1)n1nc(-c2cccc(C(=O)N3CCOCC3)c2)c2c(N)ncnc21` (centres unmarked) [Example 177, 2-(1-(4-amino-3-(3-(morpholine-4-carbonyl)phenyl)-1H-pyrazolo[3,4-d]pyrimidin-1-yl)ethyl)-3-(3-fluorophenyl)-4H-chromen-4-one], the melting point lay in the range of 104 to 106 °C. The compound further displayed an inhibition against P110 δ/Pi3K δ of under 50%.
In turn, `Cn1c(=O)c2c(ncn2Cc2oc3ccc(Br)cc3c(=O)c2-c2ccccc2)n(C)c1=O` [Example 20, 7-[(6-Bromo-4-oxo-3-phenyl-4H-chromen-2-yl)methyl]-1,3-dimethyl-1H-purine-2,6(3H,7H)-dione] gave a melting point of 253 to 255 °C. The same compound had an inhibition at 1 µM against P110 δ/Pi3K δ of under 50%.
In turn, `Nc1ncnc2c1ncn2Cc1oc2ccccc2c(=O)c1-c1cccc(F)c1` [Example 89, 2-((6-amino-9H-purin-9-yl)methyl)-3-(3-fluorophenyl)-4H-chromen-4-one] yielded a melting point of 224 to 227 °C. At P110 δ/Pi3K δ, this compound registered an inhibition of under 50%.
Take `CC(c1oc2ccc(F)cc2c(=O)c1-c1cccc(F)c1)n1nc(-c2cccc(O)c2)c2c(N)ncnc21` (centres unmarked) [Example 121a, 2-(1-(4-amino-3-(3-hydroxyphenyl)-1H-pyrazolo[3,4-d]pyrimidin-1-yl)ethyl)-6-fluoro-3-(3-fluorophenyl)-4H-chromen-4-one]: the melting point lay in the range of 193 to 196 °C. Also, at P110 δ/Pi3K δ, the inhibition lay within 50 to 100%.
With `CC(c1oc2ccccc2c(=O)c1-c1cccc(F)c1)n1nc(-c2ccc3[nH]ccc3c2)c2c(N)ncnc21` (centres unmarked) [Example 100, 2-(1-(4-amino-3-(1H-indol-5-yl)-1H-pyrazolo[3,4-d]pyrimidin-1-yl)ethyl)-3-(3-fluorophenyl)-4H-chromen-4-one], the melting point is 197 to 199 °C. On P110 δ/Pi3K δ, this compound showed an inhibition of 50 to 100%.
`CC(c1oc2ccc(Br)cc2c(=O)c1-c1ccccc1)n1ncc2c(N)ncnc21` (centres unmarked) [Example 26, 2-(1-(4-amino-1H-pyrazolo[3,4-d]pyrimidin-1-yl)ethyl)-6-bromo-3-phenyl-4H-chromen-4-one] registered a melting point of 239 to 240 °C. Further, the inhibition at 1 µM against P110 δ/Pi3K δ was under 50%.
Turning to `Cc1c2ccc(-c3nn(C(C)c4oc5ccccc5c(=O)c4-c4cccc(F)c4)c4ncnc(N)c34)cc2nn1C` (centres unmarked) [Example 171, 2-(1-(4-amino-3-(2,3-dimethyl-2H-indazol-6-yl)-1H-pyrazolo[3,4-d]pyrimidin-1-yl)ethyl)-3-(3-fluorophenyl)-4H-chromen-4-one], the melting point lay within 269 to 274 °C. Further, the inhibition at P110 δ/Pi3K δ is under 50%.
For `CC(c1oc2ccccc2c(=O)c1-c1cccc(F)c1)n1nc(-c2ccccc2CO)c2c(N)ncnc21` (centres unmarked) [Example 81, 2-(1-(4-amino-3-(2-(hydroxymethyl)phenyl)-1H-pyrazolo[3,4-d]pyrimidin-1-yl)ethyl)-3-(3-fluorophenyl)-4H-chromen-4-one], the melting point fell in the range of 185 to 189 °C. Also, the inhibition at P110 δ/Pi3K δ was under 50%.
Regarding `CC(c1oc2ccccc2c(=O)c1-c1ccccc1F)n1cnc2c(N)ncnc21` (centres unmarked) [Example 34, 2-(1-(6-Amino-9H-purin-9-yl)ethyl)-3-(2-fluorophenyl)-4H-chromen-4-one], the melting point is 247 to 250 °C. The inhibition at 1 µM against P110 δ/Pi3K δ fell in the range of 50 to 100%.
`CC(c1oc2ccccc2c(=O)c1-c1ccccc1)n1nc(C#CC(C)(C)O)c2c(N)ncnc21` (centres unmarked) [Example 71, 2-(1-(4-amino-3-(3-hydroxy-3-methylbut-1-ynyl)-1H-pyrazolo[3,4-d]pyrimidin-1-yl)ethyl)-3-phenyl-4H-chromen-4-one] yielded a melting point of 109 to 113 °C. The compound also displayed an inhibition at 1 µM on P110 δ/Pi3K δ of under 50%.
In the case of `Cc1n[nH]c2cc(-c3nn(Cc4oc5ccccc5c(=O)c4-c4cccc(F)c4)c4ncnc(N)c34)ccc12` [Example 99, 2-((4-amino-3-(3-methyl-1H-indazol-6-yl)-1H-pyrazolo[3,4-d]pyrimidin-1-yl)methyl)-3-(3-fluorophenyl)-4H-chromen-4-one], the melting point was 246 to 248 °C. For the same compound, the inhibition on P110 δ/Pi3K δ was 50 to 100%.
For the compound `CCC(c1oc2ccccc2c(=O)c1-c1ccccc1F)n1cnc2c(N)ncnc21` (centres unmarked) [Example 35, 2-(1-(6-Amino-9H-purin-9-yl)propyl)-3-(2-fluorophenyl)-4H-chromen-4-one], the melting point was 160 to 163 °C. For the same compound, on P110 δ/Pi3K δ, the inhibition at 1 µM was under 50%.
On to `COc1cccc(-c2nn(Cc3oc4ccccc4c(=O)c3-c3cccc(F)c3)c3ncnc(N)c23)c1` [Example 54, 2-((4-amino-3-(3-methoxyphenyl)-1H-pyrazolo[3,4-d]pyrimidin-1-yl)methyl)-3-(3-fluorophenyl)-4H-chromen-4-one], for which the melting point fell in the range of 175 to 178 °C. In addition, the inhibition at 1 µM at P110 δ/Pi3K δ is under 50%.
On to `Cc1cccc2c1ncn2Cc1oc2ccc(Br)cc2c(=O)c1-c1ccccc1` [Example 6, 6-Bromo-2-[(4-methyl-1H-benzo[d]imidazol-1-yl)methyl]-3-phenyl-4H-chromen-4-one], for which the melting point was in the range of 176 to 179 °C. The compound further returned an inhibition at 1 µM on P110 δ/Pi3K δ of under 50%.
For the compound `COc1ccc2cc(-c3nn(C(C)c4oc5ccccc5c(=O)c4-c4cccc(F)c4)c4ncnc(N)c34)ccc2c1` (centres unmarked) [Example 172, 2-(1-(4-amino-3-(6-methoxynaphthalen-2-yl)-1H-pyrazolo[3,4-d]pyrimidin-1-yl)ethyl)-3-(3-fluorophenyl)-4H-chromen-4-one], the melting point lay in the range of 285 to 287 °C. The inhibition against P110 δ/Pi3K δ is under 50%.
Turning to `CC(c1oc2ccc(F)cc2c(=O)c1-c1cccc(F)c1)n1cnc2c(N)ncnc21` (centres unmarked) [Example 50, 2-(1-(6-amino-9H-purin-9-yl)ethyl)-6-fluoro-3-(3-fluorophenyl)-4H-chromen-4-one], the melting point fell in the range of 252 to 255 °C. For the same compound, on P110 δ/Pi3K δ, the inhibition at 1 µM is 50 to 100%.
